Read-outs that look alike come from different tables or passages of the source. Blank lines part the entries; values can stand above or below the molecule they belong to.
Key:
GPR56/AGRG1 = GPR56/AGRG1 (Homo sapiens, UniProt Q9Y653); assay: GPR56 PRESTO-Tango; settings: titrating doses of pure amino acid
colon motility [1] = assay: Intestinal motility by fecal output; assay type: in vivo, C57Bl/6 mice; settings: M. morganii colonized mice, 1% L-His in water for 2 weeks
GPR97/AGRG3 = GPR97/AGRG3 (Homo sapiens, UniProt Q86Y34); assay: GPR97 PRESTO-Tango; settings: titrating doses of pure amino acid
[2] = target: GPR56-ANT (a mutant lacking the extracellular domain) (Homo sapiens, UniProt Q9Y653); assay: PRESTO-Tango on GPR56 truncation mutant; settings: titrating doses of L-Phe
DRD2 [3] = target: T1, DRD2 (Homo sapiens, UniProt P14416); assay: DRD2 PRESTO-Tango; assay type: cell-based; settings: pure ligand
colon motility [4] = settings: rodents; cited from earlier work
DRD2 [5] = target: T1, DRD2; settings: for phenethylamine as measured by DRD2 activation by cecal and colonic extracts: L-Phe deficient diet, MAOI
[6] = in vivo; cited from earlier work
DRD3 = DRD3 (Homo sapiens, UniProt P35462); assay: DRD3 PRESTO-Tango; assay type: cell-based; settings: pure ligand
DRD4 = target: T2, DRD4 (Homo sapiens, UniProt P21917); assay: DRD4 PRESTO-Tango; assay type: cell-based; settings: pure ligand
T2 sequence (P21917 1-419): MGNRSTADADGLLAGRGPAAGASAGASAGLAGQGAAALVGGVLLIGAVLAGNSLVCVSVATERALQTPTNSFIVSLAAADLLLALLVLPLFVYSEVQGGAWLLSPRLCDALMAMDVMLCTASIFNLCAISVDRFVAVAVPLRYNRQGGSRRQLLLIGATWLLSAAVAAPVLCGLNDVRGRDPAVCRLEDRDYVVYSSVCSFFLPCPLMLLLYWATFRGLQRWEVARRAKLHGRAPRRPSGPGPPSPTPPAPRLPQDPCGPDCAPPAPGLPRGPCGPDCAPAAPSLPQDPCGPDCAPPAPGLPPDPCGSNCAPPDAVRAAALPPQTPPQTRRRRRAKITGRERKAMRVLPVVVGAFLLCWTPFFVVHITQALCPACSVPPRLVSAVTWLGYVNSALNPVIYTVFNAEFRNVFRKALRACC

Chain of GPR56/AGRG1 (Q9Y653 26-693): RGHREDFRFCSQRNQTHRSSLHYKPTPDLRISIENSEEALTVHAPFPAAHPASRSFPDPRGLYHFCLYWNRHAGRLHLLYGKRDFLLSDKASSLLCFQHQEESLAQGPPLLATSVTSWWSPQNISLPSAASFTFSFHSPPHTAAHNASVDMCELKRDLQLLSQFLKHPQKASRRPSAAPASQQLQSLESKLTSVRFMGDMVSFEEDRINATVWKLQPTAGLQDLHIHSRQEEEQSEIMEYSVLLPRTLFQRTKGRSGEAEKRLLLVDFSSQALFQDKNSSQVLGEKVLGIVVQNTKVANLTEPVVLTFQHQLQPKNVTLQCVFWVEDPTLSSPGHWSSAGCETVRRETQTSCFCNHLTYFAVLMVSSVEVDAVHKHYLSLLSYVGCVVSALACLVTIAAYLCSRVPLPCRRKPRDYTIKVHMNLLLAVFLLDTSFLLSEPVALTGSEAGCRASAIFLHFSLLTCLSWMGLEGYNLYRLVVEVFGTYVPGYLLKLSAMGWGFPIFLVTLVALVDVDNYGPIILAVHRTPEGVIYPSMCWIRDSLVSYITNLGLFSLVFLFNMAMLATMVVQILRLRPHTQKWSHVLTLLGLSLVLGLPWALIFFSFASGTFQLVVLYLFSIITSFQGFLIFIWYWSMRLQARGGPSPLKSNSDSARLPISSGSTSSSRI
T1 sequence (P14416 whole entry): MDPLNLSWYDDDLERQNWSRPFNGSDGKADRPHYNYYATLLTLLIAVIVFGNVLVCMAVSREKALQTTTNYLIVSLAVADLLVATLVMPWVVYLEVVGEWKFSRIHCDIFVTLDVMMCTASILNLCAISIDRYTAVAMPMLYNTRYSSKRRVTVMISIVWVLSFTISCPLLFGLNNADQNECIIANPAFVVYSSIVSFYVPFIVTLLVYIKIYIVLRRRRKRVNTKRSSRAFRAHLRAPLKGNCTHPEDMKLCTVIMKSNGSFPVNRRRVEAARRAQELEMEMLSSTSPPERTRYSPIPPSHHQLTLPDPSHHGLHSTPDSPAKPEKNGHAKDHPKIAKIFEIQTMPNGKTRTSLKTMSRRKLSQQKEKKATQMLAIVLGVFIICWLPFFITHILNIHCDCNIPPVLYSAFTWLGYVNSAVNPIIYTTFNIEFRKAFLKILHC
Chain of DRD3 (P35462 whole entry): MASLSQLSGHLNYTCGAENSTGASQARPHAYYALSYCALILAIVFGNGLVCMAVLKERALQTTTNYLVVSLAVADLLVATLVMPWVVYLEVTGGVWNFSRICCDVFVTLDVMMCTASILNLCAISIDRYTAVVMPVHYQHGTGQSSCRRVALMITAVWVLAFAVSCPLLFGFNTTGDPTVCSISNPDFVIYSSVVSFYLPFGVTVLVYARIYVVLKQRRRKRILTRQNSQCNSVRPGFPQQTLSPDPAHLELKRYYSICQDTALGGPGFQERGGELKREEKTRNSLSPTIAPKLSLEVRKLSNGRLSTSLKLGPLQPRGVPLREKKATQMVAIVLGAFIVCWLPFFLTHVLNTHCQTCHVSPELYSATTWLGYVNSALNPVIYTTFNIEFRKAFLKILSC
Chain of GPR97/AGRG3 (Q86Y34 21-549): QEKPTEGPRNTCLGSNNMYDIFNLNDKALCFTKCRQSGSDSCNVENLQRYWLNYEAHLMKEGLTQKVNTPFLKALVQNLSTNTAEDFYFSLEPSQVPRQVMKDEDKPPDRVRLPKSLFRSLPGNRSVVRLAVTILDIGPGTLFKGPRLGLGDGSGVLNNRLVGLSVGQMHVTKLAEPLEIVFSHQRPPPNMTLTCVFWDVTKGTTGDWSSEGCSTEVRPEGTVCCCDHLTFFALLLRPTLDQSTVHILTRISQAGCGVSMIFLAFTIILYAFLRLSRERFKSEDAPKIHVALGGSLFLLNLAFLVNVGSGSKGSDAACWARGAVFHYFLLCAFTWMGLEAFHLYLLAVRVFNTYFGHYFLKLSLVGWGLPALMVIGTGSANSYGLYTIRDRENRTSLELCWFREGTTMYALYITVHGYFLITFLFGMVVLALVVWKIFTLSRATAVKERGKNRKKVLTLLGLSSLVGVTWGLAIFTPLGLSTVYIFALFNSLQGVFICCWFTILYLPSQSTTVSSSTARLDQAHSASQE
Chain of GPR56-ANT (a mutant lacking the extracellular domain) (Q9Y653 383-693 limits assumed, change not shown): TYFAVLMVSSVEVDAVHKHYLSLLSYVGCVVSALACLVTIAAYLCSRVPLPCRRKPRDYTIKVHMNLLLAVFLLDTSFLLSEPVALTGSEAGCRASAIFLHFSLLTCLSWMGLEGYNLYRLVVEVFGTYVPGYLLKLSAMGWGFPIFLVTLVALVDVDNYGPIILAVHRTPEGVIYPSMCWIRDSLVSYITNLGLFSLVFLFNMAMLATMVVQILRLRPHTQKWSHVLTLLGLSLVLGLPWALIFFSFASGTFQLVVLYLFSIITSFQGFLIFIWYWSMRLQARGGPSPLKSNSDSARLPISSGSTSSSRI

SMILES: N[C@H](Cc1c[nH]cn1)C(=O)O [D-His]
activation of GPR56/AGRG1 (GPR56/AGRG1): no activity

SMILES: N[C@H](Cc1ccccc1)C(=O)O [D-Phe]
activation of GPR56/AGRG1 (GPR56/AGRG1): no activity

SMILES: N[C@@H](Cc1c[nH]cn1)C(=O)O [L-His, L-histidine]
activation of GPR56/AGRG1 (GPR56/AGRG1): no activity | fecal output upon supplementation with L-His (colon motility [1]): further increased

SMILES: N[C@@H](Cc1ccccc1)C(=O)O [L-Phe, L-phenylalanine]
activation of GPR56/AGRG1 (GPR56/AGRG1): stereoselectively activated | activation of GPR97/AGRG3 (GPR97/AGRG3): activated | response of GPR56/AGRG1 truncation mutant lacking the extracellular domain [2]: failed to respond

SMILES: N[C@@H](Cc1c[nH]c2ccccc12)C(=O)O [L-Trp, L-tryptophan]
activation of GPR56/AGRG1 (GPR56/AGRG1): no activity

SMILES: NCCc1c[nH]cn1 [histamine, Histamine]
effect of oral gavage on colon motility (colon motility [4]): increase colon motility

SMILES: NNCCc1ccccc1 [phenelzine]
onset of lethargy after MAOI treatment (C57Bl/6, mouse, in vivo): ≤ 4 days | mortality after treatment with MAOI (mice colonized with M. morganii, died before the seventh day of treatment): more than half | health after MAOI treatment (mouse, in vivo): remained healthy | health after treatment with MAOI (mouse, in vivo): appeared healthy | morbidity after treatment with MAOI (mouse, in vivo): lethargic within days | DRD2 activation by cecal and colonic contents and serum (DRD2 [5]; MAOI-treated M. morganii colonized mice): activated DRD2 | phenethylamine as measured by DRD2 activation by cecal and colonic extracts (DRD2 [5]; mice bi-colonized with C34 and M. morganii): significant levels of phenethylamine | phenethylamine as measured by DRD2 activation by cecal and colonic extracts (DRD2 [5]; mice colonized with M. morganii alone): minimal phenethylamine

SMILES: NCCc1ccccc1 [phenethylamine, Phenethylamine]
activation of DRD2 (DRD2 [3]): selective DRD2/DRD3/DRD4 agonists | crossing of the blood-brain barrier [6]: can readily cross | activation of DRD3 (DRD3): selective DRD2/DRD3/DRD4 agonists | activation of DRD4 (DRD4): selective DRD2/DRD3/DRD4 agonists

Now from value to molecule:

activation of GPR56/AGRG1 (GPR56/AGRG1): no activity
SMILES: N[C@H](Cc1c[nH]c2ccccc12)C(=O)O [D-Trp]

activation of GPR56/AGRG1 (GPR56/AGRG1): no activity
SMILES: N[C@H](Cc1ccc(O)cc1)C(=O)O [D-Tyr]

activation of DRD2 (DRD2 [3]): efficiently activated
SMILES: NCCc1ccc(O)c(O)c1 [dopamine, Dopamine]

activation of DRD2 (DRD2 [3]): selective DRD2/DRD3/DRD4 agonists | activation of DRD3 (DRD3): selective DRD2/DRD3/DRD4 agonists | activation of DRD4 (DRD4): selective DRD2/DRD3/DRD4 agonists
SMILES: NCCc1ccc(O)cc1 [tyramine, Tyramine]

From patent US20230043198A1, “MICROBIOTA METABOLITES THAT SHAPE HOST PHYSIOLOGY” (Yale University, priority 2018, published 2023)
